Values of other authors, collected in paper PMC6838683, “Discovery of Human Signaling Systems: Pairing Peptides to G Protein-Coupled Receptors” (Cell, 2019).
Read-outs that look alike come from different tables or passages of the source. Residues, ends and D or L forms follow the SMILES beside them.

Biological target: human GPCRs
Design: method as in Guide to Pharmacology database
Details: max reported value, ref Guide to Pharmacology database, cited from earlier work
Text: Supplement mmc1.xlsx, sheet "HumanGPCRLigands" | column: pKi_value; pKd_value; pEC50_value; pIC50_value

[1] = receptor TACR1 (nk1r_human, P25103)
[2] = receptor TACR2 (nk2r_human, P21452)
[3] = receptor TACR3 (nk3r_human, P29371)
[4] = receptor taar1_human (TAAR1, Q96RJ0)
[5] = receptor S1PR1 (s1pr1_human, P21453)
[6] = receptor S1PR2 (s1pr2_human, O95136)
[7] = receptor S1PR3 (s1pr3_human, Q99500)
[8] = receptor S1PR4 (s1pr4_human, O95977)

In the case of `CSCC[C@H](NC(=O)[C@H](CC(C)C)NC(=O)CNC(=O)[C@@H](NC(=O)[C@H](Cc1ccccc1)NC(=O)[C@H](Cc1ccccc1)NC(=O)[C@H](CC(=O)O)NC(=O)[C@H](Cc1cnc[nH]1)NC(=O)[C@H](CCSC)NC(=O)[C@@H](N)CC(=O)O)C(C)C)C(N)=O` [neurokinin B], the pKi_value [1] is given as 6.4, the pKi_value [2] is given as 7.7 and the pEC50_value [3] is given as 8.4. For the same compound, the pKi_value [3] was 9.2.
For `CSCC[C@H](NC(=O)CNC(=O)[C@@H](NC(=O)CNC(=O)[C@@H](NC(=O)CNC(=O)[C@H](CC(N)=O)NC(=O)[C@H](CCCNC(=N)N)NC(=O)[C@H](Cc1ccccc1)NC(=O)[C@@H](N)CO)C(C)C)[C@@H](C)O)C(=O)N[C@@H](CCCCN)C(=O)N[C@@H](CCCCN)C(=O)N[C@H](C(=O)N[C@@H](CO)C(=O)N[C@@H](Cc1ccccc1)C(=O)N[C@@H](CCC(N)=O)C(=O)N[C@@H](CCCNC(=N)N)C(=O)N[C@@H](C)C(=O)N[C@@H](CCCCN)C(=O)N[C@@H](CO)C(=O)O)[C@@H](C)O` [neuropeptide S] (H-SFRNGVGTGMKKTSFQRAKS-OH), the pEC50_value (receptor npsr1_human (NPSR1, Q6W5P4)) is listed as 8.
For `NCC(O)c1ccc(O)cc1` (centres unmarked) [octopamine], the pEC50_value [4] is listed as 5.8.
In the case of `CC[C@H](C)[C@H](NC(=O)[C@H](CC(C)C)NC(=O)[C@@H](NC(=O)[C@@H](N)CCSC)[C@@H](C)O)C(=O)NCC(=O)N[C@@H](C)C(=O)N[C@@H](C)C(=O)N[C@@H](Cc1cnc[nH]1)C(=O)N[C@@H](CC(N)=O)C(=O)NCC(=O)N[C@@H](CO)C(=O)N[C@@H](C)C(=O)N[C@@H](CCC(N)=O)C(=O)N[C@@H](CC(C)C)C(=O)N[C@@H](CC(C)C)C(=O)N[C@@H](CCCN=C(N)N)C(=O)N[C@@H](CCC(N)=O)C(=O)N[C@@H](CC(C)C)C(=O)N[C@@H](CCCN=C(N)N)C(=O)NCC(=O)N[C@@H](CCC(N)=O)C(=O)N[C@@H](CC(C)C)C(=O)NCC(=O)N1CCC[C@H]1C(=O)N1CCC[C@H]1C(=O)NCC(=O)N[C@@H](CO)C(=O)N[C@@H](CCCN=C(N)N)C(N)=O` [orexin-B] (H-MTLIGAAHNGSAQLLRQLRGQLGPPGSR-NH2), the pEC50_value (receptor HCRTR1 (ox1r_human, O43613)) is given as 9.2 and the pEC50_value (receptor HCRTR2 (ox2r_human, O43614)) is given as 10.
For `CC[C@H](C)[C@@H]1NC(=O)[C@H](Cc2ccc(O)cc2)NC(=O)[C@@H](N)CSSC[C@@H](C(=O)N2CCC[C@H]2C(=O)N[C@@H](CC(C)C)C(=O)NCC(N)=O)NC(=O)[C@H](CC(N)=O)NC(=O)[C@H](CCC(N)=O)NC1=O` [oxytocin], the pKi_value (receptor AVPR1A (v1ar_human, P37288)) is listed as 8.3, the pKi_value (receptor AVPR1B (v1br_human, P47901)) is listed as 7 and the pKi_value (receptor AVPR2 (v2r_human, P30518)) is listed as 6.8. For the same compound, the pKi_value (receptor OXTR (oxyr_human, P30559)) was 9.6.
For `CCCCCCCCCCCCC/C=C/[C@@H](O)[C@@H](N)COP(=O)(O)O` [sphingosine 1-phosphate], the pEC50_value [5] is given as 9.4, the pKd_value [5] is given as 9.4 and the pEC50_value [6] is given as 8.5. The pKd_value [6] was 7.7, the pEC50_value [7] was 9.8 and the pKd_value [7] was 9.6. The pEC50_value [8] was 8.1, the pIC50_value [8] was 7 and the pEC50_value (receptor S1PR5 (s1pr5_human, Q9H228)) was 8.9. For the same compound, the pEC50_value (receptor gpr3_human (GPR3), Class A orphans) was 7.7, the pEC50_value (receptor gpr12_human (GPR12), Class A orphans) was 7 and the pEC50_value (receptor gpr63_human (GPR63), Class A orphans) was 6.2. For the same compound, the pEC50_value (receptor p2y10_human (P2RY10), Class A orphans) was 7.3.
For `CSCC[C@H](NC(=O)[C@H](CC(C)C)NC(=O)CNC(=O)[C@H](Cc1ccccc1)NC(=O)[C@H](Cc1ccccc1)NC(=O)[C@H](CCC(N)=O)NC(=O)[C@H](CCC(N)=O)NC(=O)[C@@H]1CCCN1C(=O)[C@H](CCCCN)NC(=O)[C@@H]1CCCN1C(=O)[C@@H](N)CCCN=C(N)N)C(N)=O` [substance P], the pKi_value [1] is given as 10.3, the pKi_value [2] is given as 6.9 and the pKi_value [3] is given as 6.
In the case of `O=C(O)CCC(=O)O` [succinic acid], the pEC50_value (receptor sucr1_human (SUCNR1), Succinate receptors) is given as 4.7.
In the case of `NCCc1ccc(O)cc1` [tyramine], the pEC50_value [4] is given as 6.7.
For `O=c1ccn([C@@H]2O[C@H](COP(=O)(O)OP(=O)(O)O)[C@@H](O)[C@H]2O)c(=O)[nH]1` [uridine diphosphate], the pEC50_value (receptor p2ry6_human (P2RY6), P2Y receptors) is given as 6.5.
In the case of `CC(C)[C@H](NC(=O)[C@@H]1CSSC[C@H](NC(=O)[C@H](CC(=O)O)NC(=O)[C@@H]2CCCN2C(=O)[C@@H](NC(=O)[C@@H](N)CCC(=O)O)[C@@H](C)O)C(=O)N[C@@H](Cc2ccccc2)C(=O)N[C@@H](Cc2c[nH]c3ccccc23)C(=O)N[C@@H](CCCCN)C(=O)N[C@@H](Cc2ccc(O)cc2)C(=O)N1)C(=O)O` [urotensin-II], the pKi_value (receptor UTS2R (ur2r_human, Q9UKP6)) is given as 8.6.
